Assays:
Gesamtcholesterin = assay: Study in 8 healthy volunteers on a defined purine-rich diet: total cholesterol; format: in vivo, gesunde Probanden; conditions: nach 8 Tagen (nach Therapieende), 600 mg/Tag from day 4, n = 8, before therapy (4 days) 196 ± 70 mg/dl, before diet 201 ± 48 mg/dl
Protocol: In einer anderen Studie erhielten 8 gesunde Probanden eine definierte purinreiche Diät über die Prüfdauer von 8 Tagen. Nach 4 Tagen wurde mit der Verabreichung von 11-Oxo-11-H-pyrido[2,1-b]-chinazolin-2-carbonsäure (600 mg/Tag) begonnen.
Gesamtcholesterin (x); n = 8
Das Ergebnis bedeutet eine l8prozentige Senkung des Gesamtcholesterins.

Harnsäurespiegel = assay: Rat test: lowering of uric acid level; format: in vivo; conditions: 100 mg/kg pro Tag (in zwei gleichen Gaben), Ratten
Protocol: (§1) Im Versuch an Ratten wurde mit 100 mg/kg pro Tag (in zwei gleichen Gaben) eine deutliche Senkung des Triglyceridspiegels erreicht, z.B. 34% Senkung gegenüber der Kontrolle bei normolipämischen Ratten. Vorteilhafterweise wurde gleichzeitig der Harnsäurespiegel um 38 % gesenkt. Es läßt sich daher mit einer Substanz eine Therapie der Hyperlipidämie und der Hyperurikämie durchführen. Dadurch können unerwünschte Wechselwirkungen, wie sie bei der sonst nötigen Behandlung mit je einem Wirkstoff gegen die Hyperurikämie und gegen die Hyperlipidämie auftreten können, von vornherein vermieden werden.

[1] = design: species or system Patienten; conditions: in vivo
Text: Gegenüber den bekannten Mitteln zur Behandlung der Hyperlipidämie haben die erfindungsgemäß verwendbaren Verbindungen, etwa die 11-Oxo-11-H pyrido-[2,1-b]-chinazolin-2-carbonsäure und ihre Salze, den Vorzug besserer Verträglichkeit.

Triglyceridspiegel = assay: Rat test: lowering of triglyceride level; format: in vivo; conditions: 100 mg/kg pro Tag (in zwei gleichen Gaben), normolipämische Ratten
Protocol: as §1

Gesamtcholesterinspiegel = assay: Lowering of total cholesterol level in humans; format: in vivo; conditions: 600 mg pro Tag, beim Menschen
Protocol: Mit 600 mg pro Tag ließ sich z.B. bei Verwendung der 11-Oxo-11-H-pyrido[2,1-b]chinazolin-2-carbonsäure beim Menschen der Gesamtcholesterinspiegel um etwa 25 % senken.

SMILES: O=C(O)c1ccc2nc3ccccn3c(=O)c2c1 [11-Oxo-11-H-pyrido[2,1-b]chinazolin-2-carbonsäure]
- Gesamtcholesterin (x) (Gesamtcholesterin): 160 ± 48 mg/dL
- Senkung des Harnsäurespiegels (Harnsäurespiegel): 38%
- präparatespezifische Nebenwirkungen [1]: keinerlei präparatespezifischen Nebenwirkungen
- Senkung des Triglyceridspiegels gegenüber der Kontrolle (Triglyceridspiegel): 34%
- Senkung des Gesamtcholesterinspiegels (Gesamtcholesterinspiegel): ~25%

From patent EP0312076A1, “Use of oxoquinazoline derivatives in the treatment of hyperlipidemia” (BOEHRINGER INGELHEIM KG, priority 1987, dated 1989)
